Test results reported in patent US10653688B2, “6-(6-membered heteroaryl and aryl)isoquinolin-3-yl carboxamides and preparation and use thereof” (Samumed, LLC, priority 2017, dated 2020).
Where two headings read alike, the source gives them in different places.

Key:
[1] = test system: Tau phosphorylation at Ser396 (pSer396) in SH-SY5Y cells; experiment: Tau phosphorylation at Ser396 (pSer396) cell assay, ELISA/western blot; type: cell-based, human; settings: Homo sapiens; SH-SY5Y cells, overnight (16-18 h); read-out: pSer396 Tau EC50
[2] = test system: SW480 colon carcinoma cells; experiment: Cell viability assay (CellTiter-Glo); type: cell-based, human; settings: Homo sapiens; for EC50: 96 h, four days, CellTiter-Glo; for inhibition at 10 µM: read-out: percent inhibition at 10 μM (given for EC50 >10 μM), 10 μM
recombinant GSK3β kinase = recombinant GSK3β kinase (Homo sapiens (Human), UniProt P49841); experiment: GSK3β kinase assay (Ser/Thr 09 peptide Z-lyte, FRET); type: biochemical;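 also: FRET read-out as coumarin over fluorescein emission ratio, compounds incubated one hour at room temperature, IC50 from dose-response curve fit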
Chain of recombinant GSK3β kinase (P49841 whole entry): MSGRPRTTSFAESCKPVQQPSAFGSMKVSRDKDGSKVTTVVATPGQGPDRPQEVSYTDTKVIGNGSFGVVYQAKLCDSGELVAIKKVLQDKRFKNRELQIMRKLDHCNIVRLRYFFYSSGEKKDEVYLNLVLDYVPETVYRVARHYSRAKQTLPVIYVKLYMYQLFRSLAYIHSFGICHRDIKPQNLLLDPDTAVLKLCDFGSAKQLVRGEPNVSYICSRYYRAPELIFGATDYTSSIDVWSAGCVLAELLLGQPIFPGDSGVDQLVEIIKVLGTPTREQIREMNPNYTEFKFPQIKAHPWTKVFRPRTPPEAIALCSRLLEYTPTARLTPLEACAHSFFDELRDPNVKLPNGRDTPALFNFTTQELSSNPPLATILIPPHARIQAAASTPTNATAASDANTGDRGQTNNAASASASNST

[3] = test system: IL-6 in human peripheral blood mononuclear cells (huPBMCs); experiment: IL-6 inhibition in LPS-stimulated human peripheral blood mononuclear cells (HTRF); type: cell-based; settings: Homo sapiens, PBMC; for EC50: LPS 50 ng/mL, 22 hours, IL-6 HTRF; for inhibition at 10 µM: read-out: percent inhibition at 10 μM (given for EC50 >10 μM), LPS, IL-6, 10 μM
Method in brief: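 Fresh normal human PBMCs at 1×10e6 cells/mL in RPMI with 1% FBS received compound, then 50 ng/mL E. coli 0111:B4 LPS 2 h later, and were incubated a further 22 h at 37° C. IL-6 read by HTRF (665/620 nm ratio), normalized to DMSO; EC50 from 4-parameter fit.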

[4] = test system: pT212Tau in Dyrk1a- and MAPT-overexpressing HEK293T cells; experiment: Tau phosphorylation at Threonine 212 (pT212Tau) sandwich ELISA in double transfected cells; settings: Homo sapiens, HEK-293T, read-out: Thr212 EC50 (μM)
[5] = biological target: recombinant DYRK1A kinase (Homo sapiens (Human), UniProt Q13627); experiment: DYRK1A kinase assay (Ser/Thr 18 peptide Z-lyte, FRET)
[6] = test system: LL29 cells (primary human fibroblasts derived from IPF patients), α-smooth muscle actin; experiment: Inhibition of fibrotic process: TGF-β1-treated primary human fibroblasts, αSMA staining; type: cell-based; settings: Homo sapiens, Fibroblast; for EC50: 96 h, TGF-β1 20 ng/mL, 4 days, % cells positive for αSMA; for inhibition at 10 µM: read-out: percent inhibition at 10 μM (given for EC50 >10 μM), TGF-β1, αSMA, 10 μM;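 as to all read-outs here: controls were TGF-β1-stimulated wells with DMSO vehicle as the positive reference and cells given DMSO alone as the negative reference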
[7] = GSK3β kinase, head says EC50, method says IC50, ATP 46 μM
[8] = DYRK1A kinase, head says EC50, method says IC50, ATP 30 μM

SMILES | EC50 [1] | EC50 [2] | EC50 (recombinant GSK3β kinase; [7]) | EC50 [3] | EC50 [5, 8] | EC50 (recombinant GSK3β kinase) | EC50 [5] | EC50 [4] | EC50 [6] | inhibition at 10 µM [2] | inhibition at 10 µM [3] | inhibition at 10 µM [6]
O=C(Nc1cc2cc(-c3cnccn3)ccc2cn1)[C@H]1C[C@H](N2CCOCC2)C1 [Compound 69, trans-3-Morpholino-N-(6-(pyrazin-2-yl)isoquinolin-3-yl)cyclobutane-1-carboxamide] | 2900 nM | > 10000 nM | – | > 10000 nM | – | 283 nM | 20 nM | 0.227 µM | 6730 nM | 19.5% | 4.4% | –
CN1CCC(C(=O)Nc2cc3cc(-c4cnccn4)ccc3cn2)CC1 [Compound 75, 1-Methyl-N-(6-(pyrazin-2-yl)isoquinolin-3-yl)piperidine-4-carboxamide] | > 10000 nM | > 10000 nM | – | > 10000 nM | – | 1390 nM | 10 nM | 0.089 µM | 1370 nM | 44.5% | 27.5% | –
O=C(CN1CCOCC1)Nc1cc2cc(-c3ccnnc3)ccc2cn1 [Compound 67, 2-morpholino-N-(6-(pyridazin-4-yl)isoquinolin-3-yl)acetamide] | 1100 nM | > 10000 nM | – | > 10000 nM | – | 68 nM | 29 nM | 0.206 µM | 1030 nM | 19.2% | 6.3% | –
O=C(CN1CCCC1)Nc1cc2cc(-c3cccnc3)ccc2cn1 [Compound 7, N-(6-(Pyridin-3-yl)isoquinolin-3-yl)-2-(pyrrolidin-1-yl)acetamide] | 2200 nM | 3530 nM | 247 nM | 9260 nM | 7 nM | – | – | 0.225 µM | 4350 nM | – | – | –
[2H]c1nc([2H])c(-c2ccc3cnc(NC(=O)CN4CCOCC4)cc3c2)c([2H])c1[2H] [Compound 62, 2-Morpholino-N-(6-(pyridin-3-yl-d4)isoquinolin-3-yl)acetamide] | 4800 nM | > 10000 nM | – | > 10000 nM | – | 455 nM | 9 nM | 0.086 µM | > 10000 nM | 16.6% | 8% | 13.2%
O=C(CN1CCOCC1)Nc1cc2cc(-c3cccnc3)ccc2cn1 [Compound 10, 2-Morpholino-N-(6-(pyridin-3-yl)isoquinolin-3-yl)acetamide] | 2900 nM | > 10000 nM | 525 nM | > 10000 nM | 8 nM | – | – | 0.046 µM | > 10000 nM | 15.4% | 3.7% | 6.2%
[2H]c1nc([2H])c(-c2ccc3cnc(NC(=O)CN4CCCC4)cc3c2)c([2H])c1[2H] [Compound 60, N-(6-(pyridin-3-yl-d4)isoquinolin-3-yl)-2-(pyrrolidin-1-yl)acetamide] | 1900 nM | 3940 nM | – | 9090 nM | – | 404 nM | 10 nM | 0.126 µM | 2600 nM | – | – | –

More lines, main results first:

EC50 [1] | EC50 [2] | EC50 (recombinant GSK3β kinase; [7]) | EC50 [3] | EC50 [5, 8] | EC50 (recombinant GSK3β kinase) | EC50 [5] | SMILES | EC50 [4] | EC50 [6] | inhibition at 10 µM [2] | inhibition at 10 µM [3] | inhibition at 10 µM [6]
4600 nM | 3470 nM | 974 nM | 9350 nM | 3 nM | – | – | CN1CCN(C[C@H]2CC[C@H](C(=O)Nc3cc4cc(-c5cncc(F)c5)ccc4cn3)CC2)CC1 [Compound 17, trans-N-(6-(5-Fluoropyridin-3-yl)isoquinolin-3-yl)-4-((4-methylpiperazin-1-yl)methyl)cyclohexane-1-carboxamide] | 0.004 µM | 471 nM | – | – | –
7700 nM | > 10000 nM | – | > 10000 nM | – | 1220 nM | 7 nM | O=C(Nc1cc2cc(-c3cnccn3)ccc2cn1)[C@H]1CC[C@H](CN2CC(F)C2)CC1 [Compound 72, trans-4-((3-Fluoroazetidin-1-yl)methyl)-N-(6-(pyrazin-2-yl)isoquinolin-3-yl)cyclohexane-1-carboxamide] | 0.628 µM | 1830 nM | 35.6% | 10% | –
1900 nM | 4060 nM | 175 nM | 3000 nM | 7 nM | – | – | O=C(Nc1cc2cc(-c3cncc(CN4CCCC4)c3)ccc2cn1)C1CC1 [Compound 51, N-(6-(5-(Pyrrolidin-1-ylmethyl)pyridin-3-yl)isoquinolin-3-yl) cyclopropanecarboxamide] | 0.047 µM | 4230 nM | – | – | –
> 10000 nM | 2200 nM | 725 nM | 8950 nM | 25 nM | – | – | CN1CCC(C(=O)Nc2cc3cc(-c4cncc(N5CCCC5)c4)ccc3cn2)CC1 [Compound 50, 1-Methyl-N-(6-(5-(pyrrolidin-1-yl)pyridin-3-yl)isoquinolin-3-yl)piperidine-4-carboxamide] | 0.113 µM | > 10000 nM | – | – | 31.1%
2000 nM | 3180 nM | 180 nM | 3800 nM | 4 nM | – | – | O=C(Nc1cc2cc(-c3cncc(CN4CCOCC4)c3)ccc2cn1)C1CC1 [Compound 57, N-(6-(5-(Morpholinomethyl)pyridin-3-yl)isoquinolin-3-yl) cyclopropanecarboxamide] | 0.05 µM | 2160 nM | – | – | –
9400 nM | > 10000 nM | – | 9150 nM | – | 1800 nM | 10 nM | CN1CCC(C(=O)Nc2cc3cc(-c4cncc(F)c4)ccc3cn2)CC1 [Compound 19, N-(6-(5-Fluoropyridin-3-yl)isoquinolin-3-yl)-1-methylpiperidine-4-carboxamide] | 0.205 µM | 1210 nM | 42.8% | – | –
1450 nM | 1820 nM | 957 nM | 3650 nM | 4 nM | – | – | COc1cncc(-c2ccc3cnc(NC(=O)C4CCN(C)CC4)cc3c2)c1 [Compound 33, N-(6-(5-Methoxypyridin-3-yl)isoquinolin-3-yl)-1-methylpiperidine-4-carboxamide] | 0.033 µM | 481 nM | – | – | –
705 nM | 2350 nM | – | 3250 nM | – | 175 nM | 2 nM | O=C(Nc1cc2cc(-c3cncc(CN4CCC(O)CC4)c3)ccc2cn1)C1CC1 [Compound 53, N-(6-(5-((4-Hydroxypiperidin-1-yl)methyl)pyridin-3-yl)isoquinolin-3-yl) cyclopropanecarboxamide] | 0.003 µM | 3070 nM | – | – | –
8500 nM | > 10000 nM | – | > 10000 nM | – | 602 nM | 17 nM | O=C(CCN1CCOCC1)Nc1cc2cc(-c3cncc(F)c3)ccc2cn1 [Compound 23, N-(6-(5-Fluoropyridin-3-yl)isoquinolin-3-yl)-3-morpholinopropanamide] | > 10 µM | 1630 nM | 24.8% | 8.6% | –
4900 nM | 3300 nM | 609 nM | 9500 nM | 5 nM | – | – | CN1CCN(Cc2cncc(-c3ccc4cnc(NC(=O)C5CC5)cc4c3)c2)CC1 [Compound 56, N-(6-(5-((4-Methylpiperazin-1-yl)methyl)pyridin-3-yl)isoquinolin-3-yl) cyclopropanecarboxamide] | 0.045 µM | 5130 nM | – | – | –
